US7220777B2, “Lactam derivatives as antagonists for human 11cby receptors” (SmithKline Beecham P.L.C., priority 2001, dated 2007)
Each block holds one compound with its values, some of them ahead of it. Where no end group is shown, it is not given here.

Key:
[1] = target: T1, 353 form of the 11CBy receptor (Homo sapiens, UniProt Q99705); experiment: Radioligand ([125I]-MCH) competitive binding on membranes from HEK293 cells stably expressing 11CBy receptors; conditions: [125I]-MCH 0.22 nM, 45 min 37° C., pH7.4, pKi calculated from IC50
T1 construct: expressed in transfected cells; well washed membranes
Procedure: Membranes ([…] protein) were incubated with [^125I]-Melanin Concentrating Hormone (0.22 nM) (obtained from NEN) in the presence and absence of competing test compounds for 45 min at 37° C. in a buffer (pH7.4), containing 50 mM Tris and 0.2% BSA. Non-specific binding was defined using […] Melanin Concentrating Hormone (obtained from Bachem). The test compounds were added at concentrations between […] and 10 pM in 10 concentration steps. Following incubation, the reaction was stopped by filtration through GF/B filters and washed with 4×1 ml of ice-cold 50 mM Tris buffer. Microscint 20 (Packard) was added to the filters and the radioactivity measured using a Packard TopCount. Bound cpm in the presence of test compound was expressed as a fraction of the bound cpm in the absence of test compound and plotted against the concentration of compound. From this an IC50 was determined from which the pKi was calculated.

conscious CD rats = experiment: Effects of 11CBy antagonists on plasma glucagon and blood glucose levels (rat glucagon secretion model); assay type: in vivo
[2] = Example A4 15 mg/kg + MCH group, 5 min
[3] = Example A4 15 mg/kg + MCH group, 15 min
[4] = Example A4 15 mg/kg + MCH group, time 0

T1 sequence (Q99705 whole entry): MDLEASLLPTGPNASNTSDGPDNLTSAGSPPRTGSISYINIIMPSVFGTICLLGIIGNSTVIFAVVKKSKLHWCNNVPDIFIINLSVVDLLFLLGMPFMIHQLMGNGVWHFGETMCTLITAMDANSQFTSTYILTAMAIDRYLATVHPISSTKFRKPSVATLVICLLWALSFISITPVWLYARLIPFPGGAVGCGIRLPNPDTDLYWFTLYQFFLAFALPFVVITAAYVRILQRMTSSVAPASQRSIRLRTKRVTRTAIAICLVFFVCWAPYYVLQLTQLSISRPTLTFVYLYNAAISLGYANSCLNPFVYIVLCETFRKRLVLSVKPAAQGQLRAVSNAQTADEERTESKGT

Compound: COc1cc(N2C(=O)c3ccc(Oc4ccccc4)cc3C2=O)ccc1OCCN1CCCC1.Cl [Example A4, 2-[3-Methoxy-4-(2-pyrrolidin-1-yl-ethoxy)-phenyl]-5-phenoxy-isoindole-1,3-dione hydrochloride]
Blood glucose (conscious CD rats; [2]): 6.46 ± 0.46 (7) mmol/l | Plasma glucagon (conscious CD rats; [2]): 30.85 ± 2.01 (7) pg/ml | Blood glucose (conscious CD rats; [3]): 7.71 ± 0.43 (7) mmol/l | Plasma glucagon (conscious CD rats; [3]): 22.87 ± 0.56 (5) pg/ml | Blood glucose (conscious CD rats; [4]): 5.35 ± 0.23 (7) mmol/l | Plasma glucagon (conscious CD rats; [4]): 23.45 ± 1.16 (7) pg/ml | rise in plasma glucagon (conscious CD rats; Example A4 15 mg/kg iv five minutes prior to iv MCH bolus, after 5 minutes): no rise | rise in plasma glucagon (conscious CD rats; Example A4 15 mg/kg iv five minutes prior to iv MCH bolus, after 15 min): 2.7% | blood glucose increase (conscious CD rats; Example A4 15 mg/kg iv five minutes prior to iv MCH bolus, time not given): 44% | pKi in binding to the 353 form of the 11CBy receptor [1]: 7.7

Compound: MCH (DFDMLRCMLGRVYRPCWQV; ends and bridges not checked; cysteine pairing not given here; UniProt P20382 147-165, looked up) [reference compound]
Blood glucose (conscious CD rats; MCH 50 ug/kg group, 5 min): 6.5 ± 0.33 (7) mmol/l | Plasma glucagon (conscious CD rats; MCH 50 ug/kg group, 5 min): 35.16 ± 2.5 (7) pg/ml | Blood glucose (conscious CD rats; MCH 50 ug/kg group, 15 min): 11.81 ± 1.27 (7) mmol/l | Plasma glucagon (conscious CD rats; MCH 50 ug/kg group, 15 min): 28.67 ± 1.61 (7) pg/ml | Blood glucose (conscious CD rats; MCH 50 ug/kg group, time 0): 5.87 ± 0.22 (7) mmol/l | Plasma glucagon (conscious CD rats; MCH 50 ug/kg group, time 0): 23.6 ± 1.2 (6) pg/ml | increase in plasma glucagon from the pre-treatment value (conscious CD rats; MCH 50 ug/kg iv alone, after 5 minutes): 48.7% | maximum rise in blood glucose concentration (conscious CD rats; MCH 50 ug/kg iv alone, after 15 min): 101% | increase in plasma glucagon from the pre-treatment value (conscious CD rats; MCH 50 ug/kg iv alone, after 15 minutes): 21%

Now from value to compound:

Ki [1]: 10 to 31.6 nM
Compound: COc1cc(N2C(=O)c3ccc(Nc4ccccc4)cc3C2=O)ccc1OCCN1CCCC1 [Example A5, 2-[3-Methoxy-4-(2-pyrrolidin-1-yl-ethoxy)-phenyl]-5-phenylamino-isoindole-1,3-dione]

Ki [1]: 10 to 31.6 nM
Compound: COc1cc(-n2nnc3cc(-c4ccccc4)ccc3c2=O)ccc1OCCN1CCCC1 [Example C5, 3-[3-Methoxy-4-(2-pyrrolidin-1-yl-ethoxy)-phenyl]-7-phenyl-3H-benzo[d][1,2,3]triazin-4-one]

Ki [1]: 10 to 31.6 nM
Compound: COc1cc(-n2cnc3cc(-c4ccccc4)sc3c2=O)ccc1OCCN1CCCC1 [Example F1, 3-[3-Methoxy-4-(2-pyrrolidin-1-yl-ethoxy)-phenyl]-6-phenyl-3H-thieno[3,2-d]pyrimidin-4-one]
